Experiments:
[1] = system: SD rats; test: Acute administration of A28 at multiple doses, glucose tolerance of SD rats; format: in vivo, rat; settings: for AUC0-2 h / Average hypoglycemic rate % (0-2 h) / Blood glucose level 15 min / Blood glucose level 30 min / Blood glucose level 60 min / Blood glucose level 90 min / Blood glucose level 120 min / Blood glucose level 0: SD rats OGTT; for Blood glucose level 0: before sugar
Experimental: (1) 80 SD rats were selected and starved overnight, took water freely, then randomly divided into 10 groups according to body weight and random blood glucose, 8 rats in each group. […] 1 h after oral gavage, 3 g/kg of glucose was orally administered to each group except blank control group, and the blood glucose level was monitored before the sugar administration, and at 15, 30, 60, 90 and 120 minutes after the sugar administration.
Average hypoglycemic rate %=(AUC0-120 min of solvent control group−AUC0-120 min of administration group)/(AUC0-120 min of solvent control group−AUC0-120 min of blank control group)*100%

[2] = system: C57BL/6J mice; test: Acute administration of A28 at multiple doses, urinary glucose of C57BL/6J mice; format: in vivo, mouse; settings: for Total sugar excretion / Urine concentration / Urine volume: 24 h urine
Experimental: (1) 90 normal male C57BL/6J mice were selected and randomly divided into 9 groups according to body weight and blood glucose, 10 in each group. […] After oral gavage, the mice were placed in rats (mice) metabolic cages, […] and urine was collected after 24 h, and the urine volume was recorded, then preserved under −20° C. Rats take food and water freely during the experimental period.
(2) Index Determination: Glucose levels in urine are measured by the glucose assay kit.

[3] = system: db/db mice; test: Acute administration at multiple doses, random blood glucose in db/db mice; format: in vivo, mouse; settings: for Blood glucose level 0 h: before administration
Experimental: (1) 127 db/db mice (half male and half female) entered the animal laboratory of the institute at 7 weeks of age and were grouped at 10 weeks of age. Random blood glucose and random body weight of all db/db mice were determined at 9:00 am, and then fasted for 6 hours (free drinking). Fasting blood glucose and fasting body weight were determined, and blood was collected (10 μl EDTA+20 μl tail blood, centrifugated to collect supernatant) to determine the insulin content. […] The db/db mice were once orally administered at a dose of 10 mL/kg. Blood glucose levels were measured before administration, and at 1 h, 2 h, 3 h, 4 h, 6 h after administration, and the administration times and body weights were recorded. Mice took food and water freely during the experiment.
Average hypoglycemic rate %=(model control group−administration group)/(model control group−blank control group)*100%

[4] = system: db/db mice; test: Chronic administration, fasting blood glucose in db/db mice; format: in vivo, mouse; settings: for fasting blood glucose Pre: before administration; for Hypoglycemic rate % week 1 / Hypoglycemic rate % week 2 / Hypoglycemic rate % week 3 / Hypoglycemic rate % week 4: fasting blood glucose
Experimental: (§1) Oral gavage administrated, daily dose volume was 10 mL/kg, administered once daily. Administration time was 9: 00-10:00 daily, and the administration period was 5 weeks.
The random blood glucose of mice in the normal control group, model control group, test substance administration group and positive control group were determined on the 7th, 14th, 21st, 28th day (9: 00-10:00) every week after the first administration, and food was removed and after 6 hours of starvation, the fasting blood glucose in each group was measured. Free drinking during the hunger process. The rate of decrease of blood glucose was calculated according to the following formula: Average hypoglycemic rate %=(Blood glucose of model control group−Blood glucose of administration group)/Model control group×100%

[5] = system: db/db mice; test: Chronic administration, glucose-stimulated insulin release in db/db mice; format: in vivo, mouse; settings: for Insulin AUC / Insulin (ng/ml) 0 min / Insulin (ng/ml) 15 min / Insulin (ng/ml) 30 min / Insulin (ng/ml) 60 min / Insulin (ng/ml) pre: glucose-stimulated insulin release, chronic administration
Experimental: as §1
The fourth week after administration, the mice were starved for 6 hours after morning administration and were orally administrated with glucose (1.5 g/kg), and blood was collected from the tail (10 μL EDTA+20 μL tail blood). Centrifuged and the supernatant was taken, stored at −20° C. for insulin test.

## CCc1ccc(Cc2cc3c(cc2Cl)CO[C@]32O[C@H](C)[C@@H](O)[C@H](O)[C@H]2O)s1 [Example A28, (1S,3′R,4′S,5′S,6′R)-6′-methyl-6-((5-ethylthienyl)-2-methyl)-5-chloro-3′,4′,5′,6′-tetrahydro-3H-spiro[isobenzofuran-1,2′-pyran]-3′,4′,5′-triol]
[1]; oral 0.3 mg/kg
  AUC0-2 h: 19.1 ± 1.77 mmol·h/L
  Average hypoglycemic rate % (0-2 h): 10.3%
  Blood glucose level 15 min: 7.6 ± 0.8 mmol/L
  Blood glucose level 30 min: 10.1 ± 1.6 mmol/L
  Blood glucose level 60 min: 11.1 ± 1.3 mmol/L
  Blood glucose level 90 min: 10.5 ± 0.8 mmol/L
  Blood glucose level 120 min: 8.1 ± 1.3 mmol/L
  Blood glucose level 0: 5.0 ± 0.7 mmol/L
[1]; oral 1 mg/kg
  AUC0-2 h: 15.6 ± 0.9 mmol·h/L
  Average hypoglycemic rate % (0-2 h): 45.0%
  Blood glucose level 15 min: 5.4 ± 0.9 mmol/L
  Blood glucose level 30 min: 6.5 ± 1.1 mmol/L
  Blood glucose level 60 min: 8.4 ± 0.6 mmol/L
  Blood glucose level 90 min: 9.6 ± 1.2 mmol/L
  Blood glucose level 120 min: 9.0 ± 1.3 mmol/L
  Blood glucose level 0: 4.4 ± 0.3 mmol/L
[1]; oral 3 mg/kg
  AUC0-2 h: 11.6 ± 0.9 mmol·h/L
  Average hypoglycemic rate % (0-2 h): 83.7%
  Blood glucose level 15 min: 3.6 ± 0.5 mmol/L
  Blood glucose level 30 min: 4.3 ± 0.3 mmol/L
  Blood glucose level 60 min: 5.6 ± 0.7 mmol/L
  Blood glucose level 90 min: 7.4 ± 0.6 mmol/L
  Blood glucose level 120 min: 8.4 ± 1.6 mmol/L
  Blood glucose level 0: 3.7 ± 0.4 mmol/L
[1]; oral 10 mg/kg
  AUC0-2 h: 7.6 ± 0.9 mmol·h/L
  Average hypoglycemic rate % (0-2 h): 122.4%
  Blood glucose level 15 min: 3.0 ± 0.4 mmol/L
  Blood glucose level 30 min: 3.4 ± 0.4 mmol/L
  Blood glucose level 60 min: 4.3 ± 1.8 mmol/L
  Blood glucose level 90 min: 4.2 ± 0.4 mmol/L
  Blood glucose level 120 min: 3.7 ± 0.9 mmol/L
  Blood glucose level 0: 3.1 ± 0.4 mmol/L
[1]; SD rats, single oral dose
  2 h hypoglycemic effect compared with Dapagliflozin: equivalent 2 h hypoglycemic effect to positive Dapagliflozin
[2]; at the same dose
  urinary exclusion effect compared with Dapagliflozin: equal to or stronger than positive control Dapagliflozin
[2]; oral 0.3 mg/kg
  Total sugar excretion: 10.31 ± 3.26 mg/100 g
  Urine concentration: 7.91 ± 2.50 mmol/L
  Urine volume: 2.1 ± 0.7 mL
[2]; oral 1 mg/kg
  Total sugar excretion: 175.49 ± 55.53 mg/100 g
  Urine concentration: 133.28 ± 42.18 mmol/L
  Urine volume: 1.8 ± 0.6 mL
[2]; oral 3 mg/kg
  Total sugar excretion: 440.02 ± 139.25 mg/100 g
  Urine concentration: 265.71 ± 84.09 mmol/L
  Urine volume: 2.1 ± 0.7 mL
[2]; oral 10 mg/kg
  Total sugar excretion: 712.00 ± 225.32 mg/100 g
  Urine concentration: 344.07 ± 108.88 mmol/L
  Urine volume: 2.5 ± 0.8 mL
[2]; single oral, within 24 hours
  effective dose, urine glucose excretion: ≤ 0.3 mg/kg
[3]; single administration, within 6 h
  effective dose, reduction of blood glucose levels: 3 mg/kg
[3]; single oral 0.3 mg/kg
  AUC0-6 h: 103.7 ± 7.7 mmol·h/L
  Blood glucose level 1 h: 19.4 ± 1.2 mmol/L
  Blood glucose level 2 h: 18.0 ± 0.9 mmol/L
  Blood glucose level 3 h: 17.2 ± 1.5 mmol/L
  Blood glucose level 4 h: 16.5 ± 1.5 mmol/L
  Blood glucose level 6 h: 15.4 ± 1.7 mmol/L
  Blood glucose level 0 h: 17.9 ± 1.5 mmol/L
[3]; single oral 1 mg/kg
  AUC0-6 h: 87.3 ± 4.8 mmol·h/L
  Blood glucose level 1 h: 15.9 ± 0.7 mmol/L
  Blood glucose level 2 h: 13.7 ± 0.6 mmol/L
  Blood glucose level 3 h: 14.6 ± 0.9 mmol/L
  Blood glucose level 4 h: 14.9 ± 1.1 mmol/L
  Blood glucose level 6 h: 12.3 ± 0.9 mmol/L
  Blood glucose level 0 h: 16.8 ± 1.2 mmol/L
[3]; single oral 3 mg/kg
  AUC0-6 h: 62.7 ± 3.3 mmol·h/L
  Blood glucose level 1 h: 11.2 ± 1.2 mmol/L
  Blood glucose level 2 h: 9.1 ± 0.5 mmol/L
  Blood glucose level 3 h: 10.2 ± 0.7 mmol/L
  Blood glucose level 4 h: 8.7 ± 0.6 mmol/L
  Blood glucose level 6 h: 9.7 ± 0.8 mmol/L
  Blood glucose level 0 h: 18.7 ± 1.2 mmol/L
[3]; single oral 10 mg/kg
  AUC0-6 h: 47.2 ± 1.7 mmol·h/L
  Blood glucose level 1 h: 8.2 ± 0.4 mmol/L
  Blood glucose level 2 h: 6.0 ± 0.6 mmol/L
  Blood glucose level 3 h: 7.1 ± 0.5 mmol/L
  Blood glucose level 4 h: 7.2 ± 0.6 mmol/L
  Blood glucose level 6 h: 6.1 ± 0.4 mmol/L
  Blood glucose level 0 h: 18.3 ± 1.7 mmol/L
[4]; 0.3 mg/kg once daily oral
  fasting blood glucose week 1: 10.6 ± 0.9 mmol/L
  fasting blood glucose week 2: 10.5 ± 0.8 mmol/L
  fasting blood glucose week 3: 12.3 ± 0.9 mmol/L
  fasting blood glucose week 4: 12.6 ± 1.2 mmol/L
  fasting blood glucose Pre: 13.2 ± 0.7 mmol/L
  Hypoglycemic rate % week 1: 21.4%
  Hypoglycemic rate % week 2: 52.3%
  Hypoglycemic rate % week 3: 30.6%
  Hypoglycemic rate % week 4: 21.1%
[4]; 1 mg/kg once daily oral
  fasting blood glucose week 1: 8.7 ± 0.6 mmol/L
  fasting blood glucose week 2: 9.4 ± 0.9 mmol/L
  fasting blood glucose week 3: 10.4 ± 1.0 mmol/L
  fasting blood glucose week 4: 10.0 ± 0.7 mmol/L
  fasting blood glucose Pre: 13.2 ± 1.3 mmol/L
  Hypoglycemic rate % week 1: 35.0%
  Hypoglycemic rate % week 2: 57.2%
  Hypoglycemic rate % week 3: 41.5%
  Hypoglycemic rate % week 4: 37.8%
[4]; 3 mg/kg once daily oral
  fasting blood glucose week 1: 8.6 ± 0.5 mmol/L
  fasting blood glucose week 2: 6.8 ± 0.6 mmol/L
  fasting blood glucose week 3: 8.1 ± 0.5 mmol/L
  fasting blood glucose week 4: 8.5 ± 0.6 mmol/L
  fasting blood glucose Pre: 13.5 ± 1.5 mmol/L
  Hypoglycemic rate % week 1: 36.2%
  Hypoglycemic rate % week 2: 69.2%
  Hypoglycemic rate % week 3: 54.2%
  Hypoglycemic rate % week 4: 46.8%
[4]; 10 mg/kg once daily oral
  fasting blood glucose week 1: 7.6 ± 0.6 mmol/L
  fasting blood glucose week 2: 6.9 ± 0.5 mmol/L
  fasting blood glucose week 3: 7.2 ± 0.6 mmol/L
  fasting blood glucose week 4: 7.3 ± 0.5 mmol/L
  fasting blood glucose Pre: 13.8 ± 1.2 mmol/L
  Hypoglycemic rate % week 1: 43.2%
  Hypoglycemic rate % week 2: 68.9%
  Hypoglycemic rate % week 3: 59.5%
  Hypoglycemic rate % week 4: 54.5%
[4]; four weeks chronic administration
  effective dose, fasting blood glucose, random blood glucose and HbA1c reduction: 0.3 mg/kg
[5]; four weeks chronic administration, 0.3 mg/kg and 1 mg/kg
  glucose-stimulated insulin release: significantly improved glucose-stimulated insulin release in db/db mice in a dose-dependent manner
[5]; dose 0.3 mg/kg
  Insulin AUC: 43.85 ± 5.69
  Insulin (ng/ml) 0 min: 21.58 ± 2.48 ng/mL
  Insulin (ng/ml) 15 min: 51.67 ± 7.86 ng/mL
  Insulin (ng/ml) 30 min: 46.22 ± 8.10 ng/mL
  Insulin (ng/ml) 60 min: 43.61 ± 4.85 ng/mL
  Insulin (ng/ml) pre: 7.68 ± 0.79 ng/mL
[5]; dose 1 mg/kg
  Insulin AUC: 35.92 ± 5.00
  Insulin (ng/ml) 0 min: 17.47 ± 2.20 ng/mL
  Insulin (ng/ml) 15 min: 41.94 ± 8.42 ng/mL
  Insulin (ng/ml) 30 min: 40.07 ± 7.01 ng/mL
  Insulin (ng/ml) 60 min: 32.89 ± 3.69 ng/mL
  Insulin (ng/ml) pre: 7.86 ± 0.94 ng/mL
[5]; dose 3 mg/kg
  Insulin AUC: 32.49 ± 5.92
  Insulin (ng/ml) 0 min: 17.57 ± 4.54 ng/mL
  Insulin (ng/ml) 15 min: 38.42 ± 8.58 ng/mL
  Insulin (ng/ml) 30 min: 36.06 ± 8.77 ng/mL
  Insulin (ng/ml) 60 min: 28.68 ± 8.81 ng/mL
  Insulin (ng/ml) pre: 7.92 ± 1.60 ng/mL
[5]; dose 10 mg/kg
  Insulin AUC: 17.20 ± 1.59
  Insulin (ng/ml) 0 min: 9.02 ± 0.59 ng/mL
  Insulin (ng/ml) 15 min: 16.70 ± 2.42 ng/mL
  Insulin (ng/ml) 30 min: 13.42 ± 1.94 ng/mL
  Insulin (ng/ml) 60 min: 27.45 ± 4.43 ng/mL
  Insulin (ng/ml) pre: 7.45 ± 1.00 ng/mL

Reference: patent US10550143B2, “C,O-spiro aryl glycoside compounds, preparation therefor and use thereof” (SHANGHAI INSTITUTE OF MATERIA MEDICA, CHINESE ACADEMY OF …, priority 2015, dated 2020)
